In patent US6008356A, “Pharmaceutically available protoberberine salts derivatives, and protoberberine salts derivatives, and protoberberine derivatives and salts thereof” (priority 1998, dated 1999):
Values after ≈ are worked out from the molar mass of the structure shown. Where two headings read alike, the source gives them in different places.

How the values were obtained:
[1] = tested on: C. albicans ATCC 11651; assay: MIC; format: cell-based, Candida albicans; settings: Candida albicans, ATCC11651
[2] = tested on: C. parapsilosis; assay: MIC; format: cell-based; settings: Lodderomyces parapsilosis
[3] = tested on: C. albicans OY 003; assay: MIC; format: cell-based, Candida albicans; settings: Candida albicans, OY003
[4] = tested on: C. krusei; assay: MIC; format: cell-based; settings: Pichia kudriavzevii
[5] = tested on: C. albicans IFO 1385; assay: MIC; format: cell-based, Candida albicans; settings: Candida albicans, IFO1385
[6] = tested on: C. albicans ATCC 10231; assay: MIC; format: cell-based; settings: Candida albicans, ATCC10231
[7] = tested on: E. floccosum; assay: MIC; format: cell-based, Epidermophyton floccosum; settings: Epidermophyton floccosum
[8] = tested on: C. glulliermendi; assay: MIC; format: cell-based
[9] = tested on: C. albicans KCTC 1940; assay: MIC; format: cell-based, Candida albicans; settings: Candida albicans, KCTC1940
[10] = tested on: C. albicans U.K.; assay: MIC; format: cell-based; settings: Candida albicans
[11] = tested on: C. glabrata; assay: MIC; format: cell-based; settings: Nakaseomyces glabratus
[12] = tested on: C. albicans OY 019; assay: MIC; format: cell-based, Candida albicans; settings: Candida albicans, OY019
[13] = tested on: C. albicans ATCC 28838; assay: MIC; format: cell-based, Candida albicans; settings: Candida albicans, ATCC28838
[14] = tested on: Epidermophyton floccosum; assay: Antifungal efficacy of creamy formulation against local fungal skin infection; format: in vivo, mouse (SKH/1, hairless, male); settings: topical
Protocol: Specific pathogen free SKH/1 male mouse(Hairless) of which weight is 30-35 g and age is 5 weeks, was reared with sterilized water and feed for 12 night/day in the condition of 21-23° C. and of 50% relative humidity. Five mice were allocated by each group. After skin infection, each mouse was taken in separate cage. The strain of microorganism for infection(Epidermophyton floccosum) was cultivated on a flat medium of SDA(Sabouraud Dextrose Agar) for 5-7 days and after confirmation of macrocomidia, 3 ml of RPMI (Rosewell Park Memorial Institute) 1640 media per each flat medium was added thereto and then scraped well using loop to remove hyphae from media. The floating liquid was suspended briefly and then diluted with RPMI 1640 media to adjust the concentration of hyphae to 2×10^6 CFU/ml. Mouse was anesthetized and marked on back site(lumbosacral area) in a shape of circle of which diameter is 1.5 cm. Then, the inner part of marked skin was scratched with sand paper. The scratched part was covered with a filter paper to preserve inoculated microorganism for a long time and thereby stimulating the skin continuously. 0.2 ml of fungus solution of which concentration is adjusted as described above, was inoculated between the skin and filter paper. 5 Days after the inoculation, the filter paper was removed and the infection of skin was examined. The test formulations, 0.5% creamy formulations of the compounds Nos. 62 and 85, 1.0% creamy formulation of Terbinafine(Lamisile cream) and a placebo was applied on the infected areas in a same amount once a day for 5 days. The clinical evaluation on the change of the infected area in 5 days after the inoculation was performed and expressed numerically from 0 to 4. The daily change of the infected area was checked every day. The result of each group was compared with each other.
1: Mild erythema or small number of skin eruption
2: Well-demarcated erythema with scales or mild skin eruption of infected area
3: Wide area of marked skin eruption, scales, swelling or severe skin eruption with partial swelling and scales
4: The same as those of control, or severe skin eruption in entire lesion
The result was calculated as follows;
T: Average score of clinical evaluation in drug treated area
K: Average score of clinical evaluation in placebo control group
Moreover, the antifungal efficacies of the 0.5% creamy formulation of the compounds Nos. 29, 35, 60, 62, 63 and 85, and 1% creamy formulation of Terbinafme (Lamisil cream), which are measured by applying the above formulations on the skin infected with Epidermophyton floccosum of mouse which is the standard animal for the test of local fungal skin infection, i.e, Specific Pathogen Free SKH/1, are described in the following Table 4.

[15] = C. albicans ATCC 11651, read-out: MIC
[16] = C. albicans OY 003, read-out: MIC
[17] = C. albicans IFO 1385, read-out: MIC
[18] = C. albicans KCTC 1940, read-out: MIC
[19] = C. albicans OY 019, read-out: MIC
[20] = C. albicans ATCC 28838, read-out: MIC

| MIC [1, 15] [µg/mL] | MIC [3, 16] [µg/mL] | MIC [5, 17] [µg/mL] | MIC [9, 18] [µg/mL] | MIC [12, 19] [µg/mL] | MIC [13, 20] [µg/mL] | Structure (SMILES) | MIC [1] [µg/mL] | MIC [2] [µg/mL] | MIC [3] [µg/mL] | MIC [4] [µg/mL] | MIC [5] [µg/mL] | MIC [6] [µg/mL] | MIC [7] [µg/mL] | MIC [8] [µg/mL] | MIC [9] [µg/mL] | MIC [10] [µg/mL] | MIC [11] [µg/mL] | MIC [12] [µg/mL] | MIC [13] [µg/mL] | further results |
| --- | --- | --- | --- | --- | --- | --- | --- | --- | --- | --- | --- | --- | --- | --- | --- | --- | --- | --- | --- | --- |
| – | – | – | – | – | – | C[C@@H]1[C@H](O)[C@@H](C)/C=C/C=C/C=C/C=C/C=C/C=C/C=C/[C@H](O[C@@H]2O[C@H](C)[C@@H](O)[C@H](N)[C@@H]2O)C[C@@H]2O[C@](O)(C[C@@H](O)C[C@@H](O)[C@H](O)CC[C@@H](O)C[C@@H](O)CC(=O)O[C@H]1C)C[C@H](O)[C@H]2C(=O)O [Amphotericin B, reference compound] | 1.56 (≈ 1.69 µM) | 3.12 (≈ 3.38 µM) | 0.78 (≈ 0.844 µM) | 0.78 (≈ 0.844 µM) | 1.56 (≈ 1.69 µM) | 1.56 (≈ 1.69 µM) | 12.5 (≈ 13.5 µM) | 1.56 (≈ 1.69 µM) | 0.78 (≈ 0.844 µM) | 3.12 (≈ 3.38 µM) | 1.56 (≈ 1.69 µM) | 0.4 (≈ 0.433 µM) | 3.12 (≈ 3.38 µM) | – |
| – | – | – | – | – | – | CCC(C)n1ncn(-c2ccc(N3CCN(c4ccc(OCC5COC(Cn6cncn6)(c6ccc(Cl)cc6Cl)O5)cc4)CC3)cc2)c1=O (stereo not shown) [Itraconazole, reference compound] | > 100 | – | > 100 | – | > 100 | – | 50 (≈ 70.9 µM) | – | > 100 | – | – | > 100 | > 100 | – |
| – | – | – | – | – | – | Clc1ccc(COC(Cn2ccnc2)c2ccc(Cl)cc2Cl)c(Cl)c1 (stereo not shown) [Miconazole, reference compound] | 3.12 (≈ 7.51 µM) | 3.12 (≈ 7.51 µM) | 1.56 (≈ 3.75 µM) | 3.12 (≈ 7.51 µM) | 3.12 (≈ 7.51 µM) | 6.25 (≈ 15 µM) | 6.25 (≈ 15 µM) | 3.12 (≈ 7.51 µM) | 1.56 (≈ 3.75 µM) | > 100 | > 100 | 1.56 (≈ 3.75 µM) | 0.78 (≈ 1.87 µM) | – |
| – | – | – | – | – | – | CN(C/C=C/C#CC(C)(C)C)Cc1cccc2ccccc12 [Terbinabin, Terbinafine, reference compound] | – | – | – | – | – | – | – | – | – | – | – | – | – | Efficacy (%) 0 day later ([14]; 1.0% cream): 0%; Efficacy (%) 1 day later ([14]; 1.0% cream): 40.0%; Efficacy (%) 2 day later ([14]; 1.0% cream): 57.9%; Efficacy (%) 3 day later ([14]; 1.0% cream): 68.4%; Efficacy (%) 4 day later ([14]; 1.0% cream): 70.2%; Efficacy (%) 5 day later ([14]; 1.0% cream): 71.4%; Efficacy (%) 6 day later ([14]; 1.0% cream): 73.4%; Efficacy (%) 7 day later ([14]; 1.0% cream): 75.7% |
| 3.12 | 6.25 | 12.5 | 6.25 | 6.25 | 3.12 | COc1ccc2c(Cc3ccc(C)c(C)c3)c3[n+](cc2c1OC)CCc1cc2c(cc1-3)OCO2 [compound 18, 13-(3,4-dimethylbenzyl)berberine chloride] | – | – | – | – | – | – | – | – | – | – | – | – | – | – |
| 1.56 | 6.25 | 25 | 1.56 | 6.25 | 3.12 | COc1cc(Cc2c3[n+](cc4c(OC)c(OC)ccc24)CCc2cc4c(cc2-3)OCO4)cc(OC)c1OC [compound 29, 13-(3,4,5-trimethoxybenzyl)berberine chloride] | – | – | – | – | – | – | – | – | – | – | – | – | – | Efficacy (%) 0 day later ([14]; 0.5% cream): 0%; Efficacy (%) 1 day later ([14]; 0.5% cream): 30.0%; Efficacy (%) 2 day later ([14]; 0.5% cream): 33.4%; Efficacy (%) 3 day later ([14]; 0.5% cream): 34.6%; Efficacy (%) 4 day later ([14]; 0.5% cream): 48.0%; Efficacy (%) 5 day later ([14]; 0.5% cream): 56.4%; Efficacy (%) 6 day later ([14]; 0.5% cream): 63.0%; Efficacy (%) 7 day later ([14]; 0.5% cream): 65.8% |
